Data: patent publication US20100197650A1, “COMPOSITIONS AND METHODS OF TREATMENT COMPRISING CEFTAROLINE” (FOREST LABORATORIES HOLDINGS LTD., priority 2008, published 2010)
In brackets after ≈: the same amount, converted by molar mass. Where two headings read alike, the source gives them in different places.

Tests used:
[1] = test system: AmpC-derepressed Enterobacter cloacae; assay: microbe, parasite or virus in culture; format: cell-based; conditions: for MBC range / MIC range: E. cloacae (10) clinical isolates; for MBC / MIC: Enterobacter cloacae
[2] = test system: clinical Enterobacteriacae and P. aeruginosa isolates; assay: Susceptibility testing (Example 2), summary over species; format: cell-based; conditions: Pseudomonas aeruginosa, read-out: MIC values
ESBL-producing E. coli = assay: Susceptibility testing MIC/MBC, broth microdilution (Example 2); format: cell-based, Escherichia coli; conditions: for MBC range / MIC range: E. coli (10) clinical isolates; for MBC / MIC: Escherichia coli
[3] = test system: ESBL-producing Klebsiella pneumoniae; assay: as above; format: cell-based; conditions: for MBC range / MIC range: K. pneumonia (10) clinical isolates; for MBC / MIC: Klebsiella pneumoniae
Staphylococcus aureus = assay: MIC, broth microdilution (Example 1); format: cell-based
Protocol: (§1) Stock solutions of all antibacterial agents were prepared at 80-fold (80×) the final target concentration in the appropriate solvent and the solution was allowed to stand for 60 minutes. All antibacterial agents were in solution under these conditions. The final drug concentrations in the FIC assay plates were set to bracket the MIC value of each agent for each test organism, unless the strain was totally resistant to the test agent.
(§2) The test organisms were originally received from clinical sources, or from the American Type Culture Collection. Upon receipt, the isolates were streaked onto the appropriate growth medium: Chocolate Agar for H. influenzae, Tryptic Soy Agar II (Becton Dickinson, Sparks, Md.) supplemented with 5% defibrinated sheep blood for streptococci, and unsupplemented Tryptic Soy Agar II for all other organisms. Colonies were harvested from these plates and a cell suspension was prepared in Tryptic Soy Broth (Becton Dickinson) containing cryoprotectant. Aliquots were then frozen at −80° C. On the day prior to assay, the frozen seeds of the organisms to be tested in that session were thawed and streaked for isolation onto the appropriate agar medium plates and incubated overnight at 35° C.
(§3) The test medium for H. influenzae was Haemophilus Test Medium. Streptococci were tested in Mueller Hinton II Broth (Becton Dickinson; Lot 6235472) supplemented with 2% lysed horse blood (Cleveland Scientific, Bath, Ohio; Lot H88621). All other organisms were tested in Mueller Hinton II Broth (Becton Dickinson, Lot 6235472). The broth was prepared at 1.05× normal weight/volume to offset the 5% volume of the drugs in the final test plates.
(§4) In order to select the proper test concentrations for each drug combination, minimal inhibitory concentration (MIC) values were first determined using the broth microdilution method previously described (Clinical and Laboratory Standards Institute. Methods for Dilution Antimicrobial Susceptibility Tests for Bacteria That Grow Aerobically; Approved Standard—Seventh Edition. Clinical and Laboratory Standards Institute document M7-A7 [ISBN 1-56238-587-9]. Clinical and Laboratory Standards Institute, 940 West Valley Road, Suite 1400, Wayne, Pa. 19087-1898 USA, 2006).
(§5) The wells of standard 96-well microdilution plates (Falcon 3918) were filled with 150 μL of 100% DMSO using the Multidrop 384. These plates were used to prepare the drug “mother plates” which provided the serial drug dilutions for the drug combination plates. The Biomek 2000 was used to transfer 150 μl of each stock solution (80×) from the wells in Column 1 of a deep well plate to the corresponding wells in Column 1 of the mother plate and to make seven 2-fold serial dilutions. Two mother plates, one for each drug, were combined to form a “checkerboard” pattern by transfer of equal volumes (using a multi-channel pipette) to the drug combination plate. Row H and Column 8 each contained serial dilutions of one of the agents alone for determination of the MIC.
(§6) Plates were stacked 3 high, covered with a lid on the top plate, placed in plastic bags, and incubated at 35° C. for approximately 20 hours. Following incubation, the microplates were removed from the incubator and viewed from the bottom using a ScienceWare plate viewer. Prepared reading sheets were marked for the MIC of drug 1 (row H), the MIC of drug 2 (column 8) and the wells of the growth-no growth interface.

Klebsiella pneumoniae = assay: MIC, broth microdilution (Example 1); format: cell-based; conditions: Klebsiella pneumoniae
Protocol: as §1, §2, §3, §4, §5, §6

Pseudomonas aeruginosa = assay: MIC, broth microdilution (Example 1); format: cell-based
Protocol: as §1, §2, §3, §4, §5, §6

P. aeruginosa = assay: Susceptibility testing MIC/MBC, broth microdilution (Example 2); format: cell-based, Pseudomonas aeruginosa; conditions: for MBC range / MIC range: P. aeruginosa (20) clinical isolates; for MBC / MIC: Pseudomonas aeruginosa
Streptococcus pneumoniae = assay: MIC, broth microdilution (Example 1); format: cell-based
Protocol: as §1, §2, §3, §4, §5, §6

Acinetobacter baumannii = assay: MIC, broth microdilution (Example 1); format: cell-based
Protocol: as §1, §2, §3, §4, §5, §6

C[C@@H](O)[C@H]1C(=O)N2C(C(=O)O)=C(S[C@@H]3CN[C@H](C(=O)N(C)C)C3)[C@H](C)[C@H]12 [Meropenem]
MBC range [1]: 0.03 to 0.5 µg/mL | MIC range [1]: 0.03 to 0.25 µg/mL | MBC ([1]; E. cloacae isolate no. 4073): 0.5 µg/mL (≈ 1.3 µM) | MIC ([1]; E. cloacae isolate no. 4073): 0.25 µg/mL (≈ 0.652 µM) | MBC ([1]; E. cloacae isolate no. 5420): 0.125 µg/mL (≈ 0.326 µM) | MIC ([1]; E. cloacae isolate no. 5420): 0.125 µg/mL (≈ 0.326 µM) | MIC ([2]; Enterobacteriacae (30 isolates)): ≤ 4 µg/mL | MBC range (ESBL-producing E. coli): 0.06 to 0.125 µg/mL | MIC range (ESBL-producing E. coli): 0.03 to 0.06 µg/mL | MBC (ESBL-producing E. coli; E. coli isolate no. 5401, read-out: MBC): 0.06 µg/mL (≈ 0.156 µM) | MIC (ESBL-producing E. coli; E. coli isolate no. 5401, read-out: MIC): 0.06 µg/mL (≈ 0.156 µM) | MBC (ESBL-producing E. coli; E. coli isolate no. 5411, read-out: MBC): 0.06 µg/mL (≈ 0.156 µM) | MIC (ESBL-producing E. coli; E. coli isolate no. 5411, read-out: MIC): 0.06 µg/mL (≈ 0.156 µM) | MBC range [3]: 0.06 to 0.125 µg/mL | MIC range [3]: 0.03 to 0.06 µg/mL | MBC ([3]; K. pneumonia isolate no. 5427, read-out: MBC): 0.06 µg/mL (≈ 0.156 µM) | MIC ([3]; K. pneumonia isolate no. 5427, read-out: MIC): 0.06 µg/mL (≈ 0.156 µM) | MBC ([3]; K. pneumonia isolate no. 5436, read-out: MBC): 0.06 µg/mL (≈ 0.156 µM) | MIC ([3]; K. pneumonia isolate no. 5436, read-out: MIC): 0.06 µg/mL (≈ 0.156 µM) | MIC (Staphylococcus aureus; S. aureus 2296 (CA-MRSA)): >16^a^ μg/mL | MIC (Staphylococcus aureus; Staphylococcus aureus, MRSA, S. aureus 2202 (CA-MRSA), read-out: MIC): 4 µg/mL | MIC (Staphylococcus aureus; Staphylococcus aureus, MRSA, S. aureus 2296 (CA-MRSA), read-out: MIC): > 16 µg/mL | MIC (Klebsiella pneumoniae; K. pneumoniae 1468 (ESBL), read-out: MIC): 0.06 µg/mL | MIC (Pseudomonas aeruginosa; P. aeruginosa 2555): 4 µg/mL | MIC (Pseudomonas aeruginosa; P. aeruginosa 2559): 0.12 µg/mL | MBC range (P. aeruginosa): 0.125 to 32 µg/mL | MIC range (P. aeruginosa): 0.125 to 16 µg/mL | MBC (P. aeruginosa; P. aeruginosa isolate no. 796, read-out: MBC): 2 µg/mL (≈ 5.22 µM) | MIC (P. aeruginosa; P. aeruginosa isolate no. 796, read-out: MIC): 1 µg/mL (≈ 2.61 µM) | MBC (P. aeruginosa; P. aeruginosa isolate no. 956, read-out: MBC): 2 µg/mL (≈ 5.22 µM) | MIC (P. aeruginosa; P. aeruginosa isolate no. 956, read-out: MIC): 0.25 µg/mL (≈ 0.652 µM) | MBC (P. aeruginosa; P. aeruginosa isolate no. 1019, read-out: MBC): 2 µg/mL (≈ 5.22 µM) | MIC (P. aeruginosa; P. aeruginosa isolate no. 1019, read-out: MIC): 1 µg/mL (≈ 2.61 µM) | MBC (P. aeruginosa; P. aeruginosa isolate no. 1037, read-out: MBC): 1 µg/mL (≈ 2.61 µM) | MIC (P. aeruginosa; P. aeruginosa isolate no. 1037, read-out: MIC): 0.5 µg/mL (≈ 1.3 µM)

CN(C)c1cc(NC(=O)CNC(C)(C)C)c(O)c2c1C[C@H]1C[C@H]3[C@H](N(C)C)C(O)=C(C(N)=O)C(=O)[C@@]3(O)C(O)=C1C2=O [Tigecycline]
MBC range [1]: 0.5 to 4 µg/mL | MIC range [1]: 0.25 to 2 µg/mL | MBC ([1]; E. cloacae isolate no. 4073): 2 µg/mL (≈ 3.41 µM) | MIC ([1]; E. cloacae isolate no. 4073): 0.5 µg/mL (≈ 0.854 µM) | MBC ([1]; E. cloacae isolate no. 5420): 2 µg/mL (≈ 3.41 µM) | MIC ([1]; E. cloacae isolate no. 5420): 0.5 µg/mL (≈ 0.854 µM) | MIC [2]: ≤ 8 µg/mL | MBC range (ESBL-producing E. coli): 0.06 to 4 µg/mL | MIC range (ESBL-producing E. coli): 0.06 to 0.5 µg/mL | MBC (ESBL-producing E. coli; E. coli isolate no. 5401): 1 µg/mL (≈ 1.71 µM) | MIC (ESBL-producing E. coli; E. coli isolate no. 5401): 0.5 µg/mL (≈ 0.854 µM) | MBC (ESBL-producing E. coli; E. coli isolate no. 5411): 0.5 µg/mL (≈ 0.854 µM) | MIC (ESBL-producing E. coli; E. coli isolate no. 5411): 0.125 µg/mL (≈ 0.213 µM) | MBC range [3]: 0.5 to 8 µg/mL | MIC range [3]: 0.125 to 1 µg/mL | MBC ([3]; K. pneumonia isolate no. 5427): 2 µg/mL (≈ 3.41 µM) | MIC ([3]; K. pneumonia isolate no. 5427): 0.5 µg/mL (≈ 0.854 µM) | MBC ([3]; K. pneumonia isolate no. 5436): 1 µg/mL (≈ 1.71 µM) | MIC ([3]; K. pneumonia isolate no. 5436): 0.125 µg/mL (≈ 0.213 µM) | MIC (Staphylococcus aureus; Staphylococcus aureus, MRSA, S. aureus 0765 (MRSA)): 0.25 µg/mL | MIC (Staphylococcus aureus; Staphylococcus aureus, MRSA, S. aureus 2053 (MRSA)): 0.5 µg/mL | MIC (Streptococcus pneumoniae; S. pneumoniae 0884 (PRSP)): 0.03 µg/mL | MIC (Streptococcus pneumoniae; Streptococcus pneumoniae, PRSP): 0.03 µg/mL | MIC (Klebsiella pneumoniae): 0.25 µg/mL | MIC (Acinetobacter baumannii; A. baumannii 2602): 0.06 µg/mL | MIC (Acinetobacter baumannii; Acinetobacter baumannii): 0.06 µg/mL | MBC range (P. aeruginosa): 8 to 256 µg/mL | MIC range (P. aeruginosa): 2 to 32 µg/mL | MBC (P. aeruginosa; P. aeruginosa isolate no. 796): 32 µg/mL (≈ 54.6 µM) | MIC (P. aeruginosa; P. aeruginosa isolate no. 796): 32 µg/mL (≈ 54.6 µM) | MBC (P. aeruginosa; P. aeruginosa isolate no. 956): 128 µg/mL (≈ 219 µM) | MIC (P. aeruginosa; P. aeruginosa isolate no. 956): 16 µg/mL (≈ 27.3 µM) | MBC (P. aeruginosa; P. aeruginosa isolate no. 1019): 8 µg/mL (≈ 13.7 µM) | MIC (P. aeruginosa; P. aeruginosa isolate no. 1019): 2 µg/mL (≈ 3.41 µM) | MBC (P. aeruginosa; P. aeruginosa isolate no. 1037): 32 µg/mL (≈ 54.6 µM) | MIC (P. aeruginosa; P. aeruginosa isolate no. 1037): 8 µg/mL (≈ 13.7 µM)
